A melting point compilation (Tetko et al.; mined from patent text by program, amines drawn as free bases though some values may be those of a salt)

Structure (SMILES) | melting point [°C]
COc1ccc2c(Cc3c(Cl)cncc3Cl)nnc(Cl)c2c1 | 156 to 166
Cc1cc2cc(P(=O)(O)O)c(=O)[nH]c2cc1C | > 300
Cc1nnc(-c2ccnc(Nc3cc(F)ccc3F)c2)o1 | 202 to 203
CCC(CC)N(Cc1ccc(C#N)cc1F)S(=O)(=O)c1ccc(F)cc1 | 102 to 104
COc1ccc(C(O)CNC(C)C)s1 (stereo not drawn) | 81
COc1ccc(SC2(Sc3ccc(OC)cc3)CCC3C4CCC5=CC(=O)C=CC5(C)C4(F)C(O)CC32C)cc1 (stereo not drawn) | 209 to 211
CC(=O)OCCN1CCNC1=Nc1ccccc1N1CCOCC1 | 89 to 91
CCOC(=O)c1nc(C)oc1C(=O)NC(C)(C)C | 152 to 155
COc1ccc2c(c1)cc(C=O)n2S(=O)(=O)c1ccccc1 | 123 to 124
CC(C(=O)O)c1ccc2nc(N)[nH]c2c1 (stereo not drawn) | 300
COC(C)(C)C#Cc1ncn2c1CN(C)C(=O)c1ccccc1-2 | 136 to 137
CC(C)(C)C(=O)Oc1cc(C(=O)OCC[Si](C)(C)C)cc2oc(-c3ccccc3)cc(=O)c12 | 205
Cc1cc(C)c(C)c(C(=O)CCl)c1C | 65.5
CC(=O)Nc1cccc(C(=O)Nc2cc(NC(=O)c3cccc(N(C)C)c3)ccc2C)c1 | 178 to 179
COc1cccc(OC)c1-c1ccc(CC[C@H](NC(=O)c2c(Cl)cccc2Cl)C(=O)O)cc1 | 105 to 107
CC(C)(C)C(=O)Oc1ccc(CNC(=O)c2cccnc2Oc2ccc(F)cc2)cc1 | 91 to 93
C(=Nc1ccc(Nc2ccccc2)cc1)Nc1ccc(Nc2ccccc2)cc1 | 173 to 175
COc1cc(OC)nc(-n2cnc(N)n2)n1 | 219
CCCc1c(OCCCCC#N)ccc(C(=O)c2ccccc2OC)c1O | 85 to 86.5
O=C(Nc1ccc2cc(CN3CCCCC3)ccc2c1)c1ccc(-c2ccc(Cl)cc2)nc1 | 228 to 229
CC(C)NC(=O)N1CCc2[nH]cnc2C1 | 190
CC(C)(C)[Si](C)(C)O[C@@H](CCCC(=O)N1C(=O)OC[C@@H]1Cc1ccccc1)c1ccc(F)cc1 | 87.6
Cn1cc(C(F)(F)F)ccc1=O | 125 to 129
COc1c(Cl)ccc(-c2nc(C(=O)OCc3ccc(Cl)cc3)c(Cl)c(N)c2F)c1F | 143
CC(=O)NCCNc1ccc(NCCNC(C)=O)c2c1C(=O)c1c(O)ccc(O)c1C2=O | 273 to 274
Cc1cc(Br)ccc1C(=O)NCC(F)(F)F | 124 to 126

Structure (SMILES) | melting point [°C]
CCOC(=O)c1ccc2[nH]cc(CCNC(=O)OC(C)(C)C)c2c1 | 170 to 171
O=[N+]([O-])c1cccc(Oc2ccc(Oc3cccc([N+](=O)[O-])c3)cc2)c1 | 158 to 160
O=C(NCc1ccncc1)c1ccccc1 | 177
CC(=O)NC1CCc2c(n(C)c3ccccc23)C1 (stereo not drawn) | 171 to 172
COc1ccc(C2CNC(=O)C2)cc1I (stereo not drawn) | 158
CCCCC(Cc1ccc(OCCNC(=O)c2ccc(N3CCCCC3)cc2)cc1)C(=O)O (stereo not drawn) | 112 to 114
NC(=O)Cc1ccc2c(c1)CCc1ccccc1O2 | 205 to 206
Cc1ccc(S(=O)(=O)N2CCC[C@H]2C(=O)N[C@@H](Cc2ccc(OCC(=O)NC(C)(C)C)cc2)C(=O)O)cc1 | 88 to 89
CCCc1cc(C(O)=S)cc(N)c1Oc1ccccc1 | 136 to 138
BrCCCCCOc1ccc2c(c1)OCO2 | 54 to 57
CC(I)CC(F)(F)C(F)(F)C(F)(F)C(F)(F)C(F)(F)C(F)(F)CC(C)I (stereo not drawn) | 53
Cc1cc(=O)n(-c2ccccc2)c2[nH]n(-c3ccccc3)c(=O)c12 | 145 to 147
CCN(CC)c1nc(C)[nH]c2c(-c3ccc(Cl)cc3Cl)nc(C)c1-2 | 146 to 148
CC1(C)c2c(ccc3cc(C#N)c(Cn4cncn4)cc23)OC1O (stereo not drawn) | 219 to 222
Cc1cc(C)c(Nc2nc(C)ccc2S(=O)(=O)c2ccc(OCc3ccccc3)cc2)c(C)c1 | 158 to 160
CS(=O)(=O)c1nc(C(N)=O)n[nH]1 | 172 to 180
Cc1oc(-c2ccco2)nc1COc1ccc(COc2nn(Cc3ccccc3)cc2C=O)cc1OCc1ccccc1 | 130 to 131
CCOC(=O)Cc1c(C2CCCCC2)nn(-c2ccccc2)c1-c1ccccc1 | 176 to 178
CC(=O)NCC1CN(c2ccc(N3CCN(c4nccs4)CC3)c(F)c2)C(=O)O1 (stereo not drawn) | 205 to 206
O=C(OCc1ccccc1)N1C[C@@H]2CN(c3ccc(N4C[C@H](CO)OC4=O)cc3F)C[C@@H]2C1 | 168 to 171
CC(C)CC1CC(=O)c2cc(CC(=O)O)ccc21 (stereo not drawn) | 140 to 142
CCCCc1nc(C)c(CCC(=S)N(C)C)c(=O)n1Cc1ccc(-c2ccccc2-c2nnn[nH]2)cc1 | 76.2 to 81.2
CCN(CC)CCN1C(=O)Nc2ccccc2C1c1cccc(O)c1 (stereo not drawn) | 208 to 210
COc1ccc(-c2cc3c(s2)c(=O)c(SC)cn3C)cc1 | 182 to 184
O=C(O)Cc1cccc(Oc2ccc(Cl)cc2)c1[N+](=O)[O-] | 167 to 170
CC(C)NCC(O)COc1nccnc1C1CNCCO1 (stereo not drawn) | 74 to 76

Structure (SMILES) | melting point [°C]
CCn1c(=O)c2c(N)n[nH]c2n(CC)c1=O | 246 to 248
Clc1cccnc1-c1ccc2[nH]nc(Nc3ccccn3)c2c1 | 164
O=P(O)(O)C(F)(F)c1ccc(CN(Cc2ccc(C(F)(F)P(=O)(O)O)cc2)S(=O)(=O)c2ccccc2Cl)cc1 | 170 to 172
Cc1cccc(COc2nn3c(-c4ccccc4)nnc3c3ccccc23)n1 | 186 to 187
Clc1ccc2[nH]c3c(c2c1)CN(CCc1ccc2ccccc2n1)CC3 | 187 to 190
CCCCNC(=O)Oc1ccc(C(O)(CC)c2ccc(Cl)cc2)cc1 (stereo not drawn) | 78 to 79
C[C@H]1[C@H](O)C(F)(F)C(=O)N1c1ccc(C#N)c(Cl)c1 | 133 to 139
O=C1c2ccc(Cl)cc2C(O)N1CCBr (stereo not drawn) | 164 to 168
CCCCCCCCCCCCCCCCSCC(CN)NC(=O)OC (stereo not drawn) | 49 to 50.5
COc1ccc(C(=O)Nc2ccccc2C(O)C2CCCCN2)cc1 (stereo not drawn) | 158 to 160
COc1cc(C)c(C(=O)c2c(Cl)cccc2Cl)c(OC(=O)Cc2ccccc2)c1OC | 106
O=C1CN(C(=O)Cc2ccccc2Cl)N(Cc2ccc(Cl)cc2)C(=O)N1 | 224
CC(=O)c1c(C)[nH]c(CC(=O)O)c1C | 195 to 205
COC(=O)c1cccc(-c2ncc(OCCN3CCOCC3)cn2)c1 | 89 to 91
CC(C)COC(=O)N[C@@H](Cc1ccccc1)C(=O)CSCc1ccco1 | 58 to 59
CC1(C)NC(SCc2ccccc2N)=NC1=S | 103 to 104
Cn1cnc2c1c(=O)n(CCCN1CCN(c3ccc(Cl)nn3)CC1)c(=O)n2C | 285 to 287
COc1ccc2c(c1)OC(CNCCCOc1ccc3cccnc3c1)CO2 (stereo not drawn) | 135 to 142
NS(=O)(=O)c1ccccc1C1CCOC1=O (stereo not drawn) | 141 to 146
Cc1cc2c(=O)[nH][nH]c(=O)c2n1Cc1ccccc1 | 322 to 324
O=C1CC[C@@H]2c3ccc(Cl)cc3CCC2N1 (stereo partly drawn) | 242
CCOC(=N)N1Cc2ccccc2-c2ccccc2C1 | 68 to 71
COc1ccc(-c2ccc(CCC#N)cc2)cc1 | 105 to 107
CCOC(=O)CCCCOc1ccc2c(c1)CC1CC(=O)NC1=N2 (stereo not drawn) | 180
COc1cc2c(cc1C)CCN=C2C1(C2C=CCCC2)CCC1 (stereo not drawn) | 70 to 73
COc1ccc(-n2nc(C(=O)O)c3c2CCCC3)cc1 | 233 to 234

Structure (SMILES) | melting point [°C]
CN(C(=O)OC[C@@]1(C)Cn2cc([N+](=O)[O-])nc2O1)c1ccc(Cl)cc1 | 131 to 133
O=C(O)Cc1ccc(C(=O)C2CCCCC2)cc1 | 94 to 95.5
COc1cccc(CC(=O)O)c1OCCCc1cn(-c2ccc(C(C)=O)cn2)nc1C(C)C | 148 to 149
CCCCCCCCOc1c(Cl)c(Sc2ccccc2N)c(OCCCCCCCC)c2c1C(=N)NC2=N | 97 to 99
Nc1c2c(nc3ccccc13)CCC2 | 180 to 182
Cn1c(CNCC2CCOCC2)cc2cc(NC(=O)c3ccc(OC[C@@H]4CCCO4)cc3)ccc21 | 157 to 158
CC(C)(C)OC(=O)Nc1ccc(C#Cc2nccs2)cc1N | 182
CN1CCN(c2ccc3c4c(cccc24)C(=O)N(O)C3=O)CC1 | 326 to 329
O=C(NC1CCCCC1)c1ccn2nc(-c3ccccc3)c(-c3cccc(Cl)c3)c2n1 | 160 to 161
CCOc1ccc2c(c1)C(C)(c1ccccc1Cl)C(=O)N2S(=O)(=O)c1ccc(C(=O)NC(C)(C)C)cc1 (stereo not drawn) | 157
COc1ccc(S(=O)(=O)N2CCc3cccc(NC(=O)c4ccncc4)c32)cc1 | 219 to 220
CC(=O)Nc1nc(C=O)c(Cc2ccccc2)s1 | 191 to 192
CSc1ncc(Oc2cnccc2C)c(=O)[nH]1 | 162 to 164
COc1ccc2c(c1OC)CCCC(C(=O)O)=C2 | 208 to 209
N#Cc1coc(CBr)c1 | 40 to 45
COc1cc(C(C)C)c(Oc2cnc(N)nc2N)cc1-c1ccco1 | 199 to 203
CC1(C)Oc2ccc([N+](=O)[O-])cc2C(Br)C1Br (stereo not drawn) | 130 to 134
CCOc1nc(OCC)nc(N2CCN(C=O)CC2)n1 | 106 to 108
CCN(CC)CCNc1ccc(N2CCOC2=O)cc1[N+](=O)[O-] | 124
C=CC(=O)NCCCCCC(=O)O | 88 to 90
O=C(NCc1ccc(Cl)cc1)c1cnc2cc(C(F)(F)F)c(SCc3ccccc3)cc2c1O | 185 to 188
Cc1nc(N=CN(C)C)nc(N(C)C)n1 | 61
O=C(Nc1ccccc1)O[C@@H]1CN=C(c2cccc(Cl)c2)O[C@H]1c1ccccc1 (racemic) | 126
O=C(Nc1ccc(F)cc1F)c1cncc(Sc2cccc([N+](=O)[O-])c2)n1 | 131 to 135
CN1C(=O)C(NC(=O)Nc2ccccc2[N+](=O)[O-])N=C(c2ccccc2)c2ccccc21 (stereo not drawn) | 260 to 261
